Source: patent US5989521A, “Method for augmenting a decreased level of reduced glutathione in the lung” (The United States of America as represented by the …, priority 1991, dated 1999)
Where two headings read alike, the source gives them in different places.

Experiments:
[1] = in vivo
Excerpt: Study Population. The study population included 13 male and 1 female HIV-seropositive individuals (average age 32±2 yr)(all data are presented as mean ± standard error of the mean; all statistical comparisons were made using the two-tailed Student's t-test). The diagnosis of HIV infection was confirmed by ELISA and Western blot analysis. All belonged to defined risk groups (13 homosexuals, 1 with heterosexual contact with an infected partner). None were smokers, 9 were untreated, and 5 were receiving azidothymidine, and two were receiving once monthly pentamidine by aerosol.
Biologic Samples. Venous plasma and bronchoalveolar lavage fluid were obtained by standard technique (Saltini, C. et al. (1984) Am Rev Resp Dis 130:650-658). Portions of the lavage fluid were taken for glutathione assays (see below), cell counts (total cell and CD4+ and CD8+ subtypes), and for cytocentrifuge preparations for differential counts. The cells were pelleted and the supernatant was used to quantify the amount of ELF recovered using the urea method (Rennard, S.I. et al. (1986) J Appl Physiol 60:532-538).
Study Design. […]
Glutathione Levels and Form. Glutathione levels in venous plasma, and bronchoalveolar lavage fluid were quantified with minor modifications of standard methods, as previously described (Buhl, R. et al (1989) Lancet 2:1294-1298).

[2] = in vivo; remark: listed apart in the source
Excerpt: To evaluate possible toxicity of the glutathione aerosol, symptoms, physical examination, routine blood studies, chest x-ray, electrocardiogram, renal function, arterial blood gases, and tests of pulmonary function (forced vital capacity, forced expiratory volume in one second, total lung capacity, diffusing capacity) were followed carefully throughout the study. In addition, visual examination of the respiratory mucosa and analysis of differential cell count in bronchoalveolar lavage fluid were performed before the first aerosol and after administration of the last aerosol.
Study Design. Venous plasma and bronchoalveolar lavage fluid were obtained before GSH administration. An aerosol of 600 mg GSH in 4 ml of saline was then administered over a 25 min period twice a day for three days. Following the last aerosol, venous plasma and bronchoalveolar lavage fluid were again obtained at intervals up to 3 hr after the last aerosol. All measurements were carried out in duplicate.

[3] = test system: cytotoxic T-lymphocyte cell line CT-4R
Description: (§1) T-lymphocyte Proliferation Assays. Cell proliferation in the presence of pre-aerosol compared to post-aerosol concentrations of reduced glutathione was tested on the cytotoxic T-lymphocyte cell lines CT-4R and CTLL-2 (Liang, C-M. et al. (1989) J Biol Chem 264:13519-13523). In 96-well flat bottom plates were placed 50,000 cells of the respective cell lines, suspended in 200 μl Dulbecco's Modified Eagle Medium with 10% fetal calf serum, with either 150 μM or 280 μM reduced glutathione added. The IL-2 dependent cell line CTLL-2 had 0.3 units/ml IL-2 (Genzyme) added in each well. After 18 hr culture in a 10% CO2 incubator at 37° C., 0.5 μCi of ^3 H-thymidine was added for 4 hr, followed by harvesting of cells onto glass fiber filters and scintillation counting for 1 minute. All proliferation assays were done in triplicate.

[4] = test system: cytotoxic T-lymphocyte cell line CTLL-2; conditions: 0.3 units/ml IL-2
Description: as §1

[5] = Description: (§2) Ten individuals with IPF (6 male, 4 female, 46±3 yr) defined by standard clinical criteria (Crystal, R. G. et al. (1984) N. Engl. J. Med. 310: 154-166, and 310: 235-244; Turner-Warwick, M. et al. (1980) Thorax. 35: 171-180) received aerosolized GSH; 19 normal nonsmokers (14 male, 5 female, 36±3 yr) (Buhl, R. et al. (1989) Lancet. 2: 1294-1298) served as controls for GSH levels. […] An aerosol of 600 mg GSH was administered every 12 hr for 3 days. Respiratory ELF, obtained by lavage, was evaluated before therapy, and 1 hr after the first or last (sixth) aerosol, and plasma before and 1 hr after the last aerosol. Total glutathione, oxidized glutathione (GSSG) and reduced glutathione (GSH) levels in ELF and plasma were quantified as previously described (Buhl, R. et al. (1990) Proc. Natl. Acad. Sci. USA. 87:4063-4067; Buhl, R. et al. (1989) Lancet. 2: 1294-1298). Spontaneous O2^- release from adherent alveolar macrophages was measured by the reduction of ferricytochrome C (Buhl, R. et al. (1990) Proc. Natl. Acad. Sci. USA. 87:4063-4067). All data are presented as mean ± standard error of the mean. The two-tailed Student's t-test was used to compare ELF glutathione levels in normal and IPF individuals and the results presented as exact p values and degrees of freedom (df). The Wilcoxon paired nonparametric test was used to compare pre- and post-aerosol therapy ELF GSH levels and spontaneous O2^- release by alveolar macrophages, and the results presented as exact p values.
alveolar macrophages = conditions: 600 mg twice daily for 3 days, 1 hr after last dose, all individuals (p=0.02)
Description: as §2

Remark: listed apart in the source
[6] = preparation reconstituted in 0.9% saline; cited from earlier work
[7] = intravenous administration; cited from earlier work

SMILES: N[C@@H](CCC(=O)N[C@@H](CS)C(=O)NCC(=O)O)C(=O)O [GSH, L-γ-glutamyl-L-cysteinyl-glycine]
- oxidized glutathione as percentage of total glutathione in ELF [1]: 44±18%
- inflammation of the lower respiratory tract [2]: did not result in inflammation
- physical examination and all clinical studies [2]: remained stable
- pulmonary function tests and arterial blood gases [2]: unchanged
- proliferation (3H-thymidine incorporation) ([3]; 150 μM reduced glutathione (pre-therapy concentration)): 7478±550 cpm
- proliferation (3H-thymidine incorporation) ([3]; 280 μM reduced glutathione (post-therapy concentration)): 10,752±376 cpm
- proliferation (3H-thymidine incorporation) ([4]; CTLL-2, 150 μM reduced glutathione): 5077±69 cpm
- proliferation (3H-thymidine incorporation) ([4]; CTLL-2, 280 μM reduced glutathione): 5792±219 cpm
- adverse effects associated with GSH aerosol administration ([5]; 600 mg every 12 hr for 3 days): No adverse effects
- ELF oxidized glutathione compared to baseline ([5]; 600 mg twice daily for 3 days, 1 hr after last dose, all individuals (p=0.02)): significant increase
- total glutathione in ELF versus pre-therapy ([5]; 1 hr after the first aerosol of 600 mg GSH (p=0.005)): increased
- plasma glutathione levels following aerosolization ([5]; 1 hr after the last aerosol (p=0.59)): did not change
- average level of total glutathione in ELF versus pre-therapy ([5]; after repeated dosing for 3 days, 1 hr after last aerosol (p=0.55)): higher than the pre-therapy level, but not significantly so
- spontaneous O2- release by alveolar macrophages (alveolar macrophages): decrease
- mass median aerodynamic diameter of the aerosol droplets (150 mg/ml GSH in 0.9% NaCl, nebulizer at 40 psi, laser particle-size analysis): 2.8 μm
- glutathione in the reduced form (in the aerosolized droplets): 97.0±0.6%
- glutathione in the reduced form (pre-aerosol preparations): 98.2±0.1%
- effect of aerosolization on the form of the GSH [6]: did not alter the form
- serum half-life [7]: < 2 min
